Reference: patent US8536307B2, “Anticalins” (Pieris AG, priority 1997, dated 2013)

Tests used:
[1] = molecular target: anticalin FluC, mutein of Pieris brassicae bilin-binding protein (Bbp): Asn34Ser, Ser35Lys, Val36Asn, Glu37Gly, Gly40Arg, Asn58Arg, His60Thr, Ile69Gln, Leu88Arg (Pieris brassicae, UniProt P09464, E52G/F142H/F83V/G55R/H75T/I84Q/K102S/K110R/K131R/K150M/L103R/N112G/N16D/N36Q/N49S/N73R/Q140L/S50K/V108K/V51N/Y105V/Y129R); conditions: fluorescence titration, excitation 280 nm, emission 340 nm, 1 μM anticalin, PBS with 1 mM EDTA, pH 7.4, 25° C.; [P]t additionally fitted as a free parameter
[2] = Fluorescence titration (decrease of intrinsic protein fluorescence) with ligand fluorescein; assay type: binding; conditions: measurement for comparison, fluorescein ligands
Procedure: The ligand-binding characteristics of the anticalins, were then determined by fluorescence titration. Here, the decrease in the intrinsic tyrosine and tryptophan fluorescence of the protein upon complex formation with the ligand was measured. The measurements were made with a fluorescence photometer (MS III, Photon Technology International Inc.) at an excitation wavelength of 280 nm (slit width 5 nm) and emission wavelength of 340 nm (slit width 10 nm). Fluorescein, 4-amino-fluorescein as well as its conjugate with glutaric acid from Example 2 were used as ligands.
PBS with addition of 1 mM EDTA, pH 7.4 (adjusted with NaOH) served as buffer system. […] For FluA and Bbp, the corrected calculated extinction coefficients in the presence of guanidinium chloride according to Gill and von Hippel (Anal. Biochem. 182 (1989), 319-326) of 59755 M^−1 cm^−1 (FluA) as well as 54150 M^−1 cm^−1 (Bbp) were used.
For the measurement, 2 ml of the anticalin solution was applied in a quartz cuvette equipped with a stirring bar and thermostatted at 25° C. in the sample holder of the photometer. […] After every titration step the sample was incubated for 1 minute with stirring for equilibration, and the fluorescence signal was measured as an average value over 10 s. […]
[formula] Here, F is the normalized fluorescence intensity and [P]t the concentration of the anticalin. […]

[3] = molecular target: biotinylated synthetic hepatitis C-peptide epitope, peptide fragment no. 59 from the surface protein NS4 of HCV (SEQ ID NO:13) (Hepatitis C virus genotype 1a, UniProt P27958); test: Sandwich-ELISA for detection of hepatitis C peptide epitope; conditions: ranking of signal strength
Procedure: For the ELISA, the wells in a microtiter plate (ELISA-STRIP, 2×8 wells, KO, F-form, high binding capacity, Greiner) were each filled with 200 μl of a solution of 20 mg/ml HSA in 50 mM NaHCO3 pH 9.6 and were incubated for 1 hour at RT. After removal of the solution, the unoccupied binding sites were saturated with 200 μl 3% w/v BSA in PBS with 0.5% v/v Tween 20 for 1 hour. After washing three times with PBST, 50 μl of the undiluted periplasmic protein extract were filled into the respective first well of a row. 50 μl PBS were first placed into each of the subsequent wells of each row. 50 μl of the periplasmic protein extract were then pipetted into the respective second well, were mixed, and, starting from this, 1:2 dilutions in the subsequent wells were prepared in a stepwise manner. The periplasmic protein extract with the Bbp, which was made using pBBP22 as expression plasmid, served as a control.
After 1 hour incubation at RT washing followed three times with PBST, followed by pipetting of 200 μl of the ligand solution (SEQ ID NO:13, 1 μM in PBST) into each well. […] To this end, 100 μl of a solution of 0.5 mg/ma p-nitrophenylphosphate (Amresco) in AP-buffer were placed in each well and product formation was measured by absorption at 405 nm in a SpectraMax 250 photometer (Molecular Devices) as dA/dt number.

Chain of UniProt P09464 (P09464 other isoform, or with tags, fused parts or gaps with the stated changes): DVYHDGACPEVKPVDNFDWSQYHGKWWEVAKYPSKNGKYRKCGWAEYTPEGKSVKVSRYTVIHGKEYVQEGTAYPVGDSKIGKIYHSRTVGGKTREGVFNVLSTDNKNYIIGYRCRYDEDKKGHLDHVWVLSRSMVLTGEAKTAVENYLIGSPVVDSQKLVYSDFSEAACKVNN

Molecule	Dissociation constant (Kd) [1] [nM]	sandwich-ELISA signal in comparison between anticalins [3]	further results
Nc1ccc2c(c1)C(=O)OC21c2ccc(O)cc2Oc2cc(O)ccc21 [4-Aminofluorescein, 4-amino-fluorescein]	299 ± 41		
O=C(O)CCCC(=O)Nc1ccc2c(c1)C(=O)OC21c2ccc(O)cc2Oc2cc(O)ccc21 [4-Glutarylamidofluorescein, 4-glutarylamido-fluorescein]	78 ± 3		
O=C1OC2(c3ccc(O)cc3Oc3cc(O)ccc32)c2ccccc21 [Fluorescein, fluorescein]	411 ± 20		
Bbp: Recombinant bilin-binding protein from Pieris brassicae (modified, encoded on pBBP21/pBBP22), produced as a control (protein, left off: small tags and cut ends) DVYHDGACPEVKPVDNFDWSQYHGKWWEVAKYPNSVEKYGKCGWAEYTPEGKSVKVSNYHVIHGKEYFIEGTAYPVGDSKIGKIYHSLTYGGVTKENVFNVLSTDNKNYIIGYYCKYDEDKKGHQDFVWVLSRSMVLTGEAKTAVENYLIGSPVVDSQKLVYSDFSEAACKVNNLAEAKVLANRELDKYGVSDYYKNLINNAKTVEGVKALIDEILAALP			binding effect in fluorescence titration (dissociation constant) [2]: so weak that a dissociation constant could not be determined
HepC4: Anticalin (Bbp mutein) binding hepatitis C peptide epitope, produced as fusion with Strep-Tag II and albumin-binding domain (protein, left off: small tags and cut ends) DVYHDGACPEVKPVDNFDWSQYHGKWWEVAKYPQAPGKYGKCGWAEYTPEGKSVKVSPYNVIHGKEYFAEGTAYPVGDSKIGKIYHSWTGGGLTAEWVFNVLSTDNKNYIIGYPCRYDEDKKGHLDPVWVLSRSMVLTGEAKTAVENYLIGSPVVDSQKLVYSDFSEAACKVNNLAEAKVLANRELDKYGVSDYYKNLINNAKTVEGVKALIDEILAALP		followed by HepC4	
HepC1: Anticalin (Bbp mutein) binding hepatitis C peptide epitope, produced as fusion with Strep-Tag II and albumin-binding domain (protein, left off: small tags and cut ends) DVYHDGACPEVKPVDNFDWSQYHGKWWEVAKYPKTKQKYEKCGWAEYTPEGKSVKVSLYHVIHGKEYFFEGTAYPVGDSKIGKIYHSVTAGGFTSEQVFSVLSTDNKNYIIGYACYYDEDKKGHVDFVWVLSRSMVLTGEAKTAVENYLIGSPVVDSQKLVYSDFSEAACKVNNLAEAKVLANRELDKYGVSDYYKNLINNAKTVEGVKALIDEILAALP		strongest	
